Assay results from patent US10626112B2, “Heterocyclic sulfonamide derivative and medicine comprising same” (EA PHARMA CO., LTD., priority 2014, dated 2020).

Target: human TRPA1 (Homo sapiens (Human), UniProt O75762)
Experiment: Measurement of TRPA1 antagonist activity (1): intracellular calcium increase
Assay type: cell-based
Settings: 293T cells transfected with human TRPA1 expression plasmid; allylisothiocyanate 20 μM stimulation; intracellular calcium fluorescence; read-out: hTRPA1 IC50
Procedure, shortened: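 HEK293T cells transiently transfected with full-length human TRPA1, loaded with Calcium4 dye in HBSS/20 mM HEPES pH 7.2. Test compound preincubated 10 min, then allylisothiocyanate added at 20 μM final and fluorescence change followed for 5 min. IC50 from sigmoid fit of percent inhibition relative to agonist and buffer controls.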

human TRPA1, sequence (O75762 whole entry): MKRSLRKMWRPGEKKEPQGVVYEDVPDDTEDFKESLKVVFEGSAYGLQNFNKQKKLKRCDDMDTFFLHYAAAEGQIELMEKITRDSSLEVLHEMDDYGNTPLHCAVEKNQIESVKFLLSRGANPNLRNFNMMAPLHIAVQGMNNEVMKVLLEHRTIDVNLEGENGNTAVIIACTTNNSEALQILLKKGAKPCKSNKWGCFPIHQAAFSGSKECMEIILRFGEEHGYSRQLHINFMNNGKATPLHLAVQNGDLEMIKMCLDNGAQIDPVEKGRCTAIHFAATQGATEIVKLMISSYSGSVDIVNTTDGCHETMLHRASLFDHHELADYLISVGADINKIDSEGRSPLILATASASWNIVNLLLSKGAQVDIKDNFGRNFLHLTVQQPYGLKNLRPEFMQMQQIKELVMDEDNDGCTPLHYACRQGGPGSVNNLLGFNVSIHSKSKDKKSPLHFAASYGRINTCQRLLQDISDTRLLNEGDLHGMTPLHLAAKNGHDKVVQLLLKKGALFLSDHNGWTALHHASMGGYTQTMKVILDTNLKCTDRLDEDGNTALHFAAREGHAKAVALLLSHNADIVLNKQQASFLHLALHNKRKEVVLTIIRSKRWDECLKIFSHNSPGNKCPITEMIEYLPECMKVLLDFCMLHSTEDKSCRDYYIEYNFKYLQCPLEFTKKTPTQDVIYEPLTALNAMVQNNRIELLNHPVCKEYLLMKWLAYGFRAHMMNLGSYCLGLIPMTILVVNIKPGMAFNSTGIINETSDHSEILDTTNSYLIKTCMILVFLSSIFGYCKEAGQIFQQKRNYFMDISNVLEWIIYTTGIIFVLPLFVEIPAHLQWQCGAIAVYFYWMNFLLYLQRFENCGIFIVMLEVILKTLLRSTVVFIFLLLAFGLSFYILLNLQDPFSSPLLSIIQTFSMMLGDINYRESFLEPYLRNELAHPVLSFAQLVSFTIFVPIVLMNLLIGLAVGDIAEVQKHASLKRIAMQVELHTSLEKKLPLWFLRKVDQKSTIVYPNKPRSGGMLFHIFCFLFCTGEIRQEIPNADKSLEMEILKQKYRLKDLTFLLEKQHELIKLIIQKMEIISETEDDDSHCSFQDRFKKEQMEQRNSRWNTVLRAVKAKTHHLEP

| Compound | IC50 [nM] |
| --- | --- |
| C[C@H](NS(=O)(=O)c1cc2cc(F)ccc2o1)C(=O)NCc1cccc(OCc2ccc(C#N)cc2)c1 [Example 184, (2S)-N-[[3-[(4-cyanophenyl)methoxy]phenyl]methyl]-2-[(5-fluorobenzofuran-2-yl)sulfonylamino]propanamide] | 41 |
| O=C(NC1(c2ccnc(-c3ccc(C(F)(F)F)cc3)c2)CC1)[C@@H]1CCCN1S(=O)(=O)c1cc2ccccc2o1 [Example 217, (2S)-1-(benzofuran-2-ylsulfonyl)-N-[1-[2-[4-(trifluoromethyl)phenyl]-4-pyridyl]cyclopropyl]-pyrrolidine-2-carboxamide] | 64 |
| C[C@H](NS(=O)(=O)c1cc2cc(F)ccc2o1)C(=O)NCc1cccc(OCC2CCOCC2)c1 [Example 185, (2S)-2-[(5-fluorobenzofuran-2-yl)sulfonylamino]-N-[[3-(tetrahydropyran-4-ylmethoxy)phenyl]methyl]propanamide] | 250 |
| O=C(NC1(c2cc(Cl)cc(-c3ccc(C(F)(F)F)nc3)c2)CC1)[C@@H]1CCCN1S(=O)(=O)c1cc2ccccc2o1 [Example 216, (2S)-1-(benzofuran-2-ylsulfonyl)-N-[1-[3-chloro-5-[6-(trifluoromethyl)-3-pyridyl]phenyl]cyclopropyl]-pyrrolidine-2-carboxamide] | 13 |
| O=C(NCc1cccc(-c2ccc(C(F)(F)F)cc2)c1)[C@@H]1CCCN1S(=O)(=O)c1cc2cc(F)ccc2o1 [Example 157, (2S)-1-(5-fluorobenzofuran-2-yl)sulfonyl-N-[[3-[4-(trifluoromethyl)phenyl]-phenyl]methyl]pyrrolidine-2-carboxamide] | 0.48 |
| O=C(NCc1ccnc(-c2cc(F)c(F)cc2O)c1)[C@@H]1CCCN1S(=O)(=O)c1cc2cc(F)ccc2o1 [Example 137, (2S)-N-[[2-(4,5-difluoro-2-hydroxy-phenyl)-4-pyridyl]methyl]-1-(5-fluorobenzofuran-2-yl)sulfonyl-pyrrolidine-2-carboxamide] | 29 |
| O=C(NCc1cccc(OCC2CCOC2)c1)[C@@H]1CCCN1S(=O)(=O)c1cc2cc(F)ccc2o1 (stereo partly drawn) [Example 32, (2S)-1-(5-fluorobenzofuran-2-yl)sulfonyl-N-[[3-(tetrahydrofuran-3-ylmethoxy)phenyl]-methyl]pyrrolidine-2-carboxamide] | 31 |
| O=C(NCc1ccnc(-c2ccc(C(F)(F)F)cc2O)c1)[C@@H]1CCCN1S(=O)(=O)c1cc2cc(F)ccc2o1 [Example 138, (2S)-1-(5-fluorobenzofuran-2-yl)sulfonyl-N-[[2-[2-hydroxy-4-(trifluoromethyl)phenyl]-4-pyridyl]methyl]pyrrolidine-2-carboxamide] | 0.97 |
| O=C(NCc1cc(-c2ccc(C(F)(F)F)cc2O)ncn1)[C@@H]1CCCN1S(=O)(=O)c1cc2ccccc2o1 [Example 288, (2S)-1-(benzofuran-2-ylsulfonyl)-N-[[6-[2-hydroxy-4-(trifluoromethyl)phenyl]pyrimidin-4-yl]methyl]pyrrolidine-2-carboxamide] | 2.5 |
| O=C(NCc1cc(OC(F)(F)F)ccc1F)[C@@H]1CCCN1S(=O)(=O)c1cc2cc(F)ccc2o1 [Example 71, (2S)-1-(5-fluorobenzofuran-2-yl)sulfonyl-N-[[2-fluoro-5-(trifluoromethoxy)phenyl]methyl]-pyrrolidine-2-carboxamide] | 3.2 |
| O=C(NCc1cc(-c2ccc(C(F)(F)F)cc2)ncn1)[C@@H]1CCCN1S(=O)(=O)c1cc2cnccc2o1 [Example 270, (2S)-1-furo[3,2-c]pyridin-2-ylsulfonyl-N-[[6-[4-(trifluoromethyl)phenyl]-pyrimidin-4-yl]methyl]pyrrolidine-2-carboxamide] | 3.8 |
| O=C(NCc1cccc(Oc2ccc(C(F)(F)F)cc2)c1)[C@@H]1CCCN1S(=O)(=O)c1cc2cnccc2o1 [Example 269, (2S)-1-furo[3,2-c]pyridin-2-ylsulfonyl-N-[[3-[4-(trifluoromethyl)phenoxy]-phenyl]methyl]pyrrolidine-2-carboxamide] | 4.3 |
| CN(C)c1ccc(-c2ccc(F)c(CNC(=O)[C@@H]3CCCN3S(=O)(=O)c3cc4ccccc4o3)c2)cn1 [Example 172, (2S)-1-(benzofuran-2-ylsulfonyl)-N-[[5-[6-(dimethylamino)-3-pyridyl]-2-fluoro-phenyl]methyl]pyrrolidine-2-carboxamide] | 11 |
| N#Cc1ccc(-c2cc(CNC(=O)[C@@H]3CCCN3S(=O)(=O)c3cc4ccccc4o3)ccn2)cc1 [Example 117, (2S)-1-(benzofuran-2-ylsulfonyl)-N-[[2-(4-cyanophenyl)-4-pyridyl]methyl]pyrrolidine-2-carboxamide] | 14 |
| O=C(NCc1ccc(-c2cccc(F)c2)cc1)[C@@H]1CCCN1S(=O)(=O)c1cc2ccccc2o1 [Example 169, (2S)-1-(benzofuran-2-ylsulfonyl)-N-[[4-(3-fluorophenyl)phenyl]methyl]-pyrrolidine-2-carboxamide] | 150 |
| C#CCN([C@@H](C)C(=O)NCc1ccnc(-c2ccc(C(F)(F)F)cc2O)c1)S(=O)(=O)c1cc2cc(F)ccc2o1 [Example 275, (2S)-2-[(5-fluorobenzofuran-2-yl)sulfonyl-2-propynylamino]-N-[[2-[2-hydroxy-4-(trifluoromethyl)phenyl]-4-pyridyl]methyl]propanamide] | 3.8 |
| CN(C)c1ccc(-c2cccc(CNC(=O)[C@@H]3CCCN3S(=O)(=O)c3cc4cc(F)ccc4o3)c2)cn1 [Example 159, (2S)-N-[[3-[6-(dimethylamino)-3-pyridyl]phenyl]methyl]-1-(5-fluorobenzofuran-2-yl)sulfonyl-pyrrolidine-2-carboxamide] | 6.2 |
| O=C(NCc1cc(-c2ccc(C(F)(F)F)cn2)ccn1)[C@@H]1[C@@H](O)CCN1S(=O)(=O)c1cc2cc(F)ccc2o1 [Example 228, (2S,3S)-1-(5-fluorobenzofuran-2-yl)sulfonyl-3-hydroxy-N-[[4-[5-(trifluoromethyl)-2-pyridyl]-2-pyridyl]methyl]pyrrolidine-2-carboxamide] | 32 |
| O=C(NCc1ccnc(-c2ccc(OC(F)(F)F)cc2)c1)[C@@H]1CCCN1S(=O)(=O)c1cc2cc(F)ccc2o1 [Example 129, (2S)-1-(5-fluorobenzofuran-2-yl)sulfonyl-N-[[2-[4-(trifluoromethoxy)phenyl]-4-pyridyl]methyl]pyrrolidine-2-carboxamide] | 0.61 |
| O=C(NCc1cc(-c2ccc(C(F)(F)F)cn2)ccn1)[C@@H]1[C@H]2CC[C@H](C2)N1S(=O)(=O)c1cc2cc(F)ccc2o1 [Example 262, (1S,2S,4R)-3-(5-fluorobenzofuran-2-yl)sulfonyl-N-[[4-[5-(trifluoromethyl)-2-pyridyl]-2-pyridyl]methyl]-3-azabicyclo[2.2.1]heptane-2-carboxamide] | 2.3 |
| O=C(NCc1cccc(Oc2ccc(C(F)(F)F)nc2)c1)[C@@H]1CCCN1S(=O)(=O)c1cc2ccccc2o1 [Example 54, (2S)-1-(benzofuran-2-ylsulfonyl)-N-[[3-[[6-(trifluoromethyl)-3-pyridyl]oxy]phenyl]methyl]-pyrrolidine-2-carboxamide] | 9 |
| O=C(NCc1ccnc(-c2cnc(C3CC3)nc2)c1)[C@@H]1CCCN1S(=O)(=O)c1cc2cc(F)ccc2o1 [Example 134, (2S)-N-[[2-(2-cyclopropylpyrimidin-5-yl)-4-pyridyl]methyl]-1-(5-fluorobenzofuran-2-yl)sulfonyl-pyrrolidine-2-carboxamide] | 42 |
| O=C(NCc1cccc(-c2ncc(C(F)(F)F)cn2)c1)[C@@H]1CCCN1S(=O)(=O)c1cc2ccccc2o1 [Example 194, (2S)-1-(benzofuran-2-ylsulfonyl)-N-[[3-[5-(trifluoromethyl)pyrimidin-2-yl]phenyl]-methyl]pyrrolidine-2-carboxamide] | 10 |
| N#Cc1ccc(-c2cc(CNC(=S)[C@@H]3CCCN3S(=O)(=O)c3cc4ccccc4o3)ccn2)cc1 [Example 293, (2S)-1-(benzofuran-2-ylsulfonyl)-N-[[2-(4-cyanophenyl)-4-pyridyl]methyl]pyrrolidine-2-carbothioamide] | 3.1 |
| O=C(NCc1cccc(-c2ccc(C(F)(F)F)nc2)c1)[C@@H]1CCCN1S(=O)(=O)c1cc2cc(F)ccc2o1 [Example 88, (2S)-1-(5-fluorobenzofuran-2-yl)sulfonyl-N-[[3-[6-(trifluoromethyl)-3-pyridyl]phenyl]methyl]pyrrolidine-2-carboxamide] | 0.41 |
| O=C(NCc1cccc(OCc2ccc(C(F)(F)F)cc2)c1)[C@@H]1CCCN1S(=O)(=O)c1cc2cccc(F)c2o1 [Example 39, (2S)-1-(7-fluorobenzofuran-2-yl)sulfonyl-N-[[3-[[4-(trifluoromethyl)phenyl]methoxy]-phenyl]methyl]pyrrolidine-2-carboxamide] | 190 |
| CN(C)c1cncc(COc2cccc(CNC(=O)[C@@H]3CCCN3S(=O)(=O)c3cc4cc(F)ccc4o3)c2)c1 [Example 23, (2S)-N-[[3-[[5-(dimethylamino)-3-pyridyl]methoxy]phenyl]-methyl]-1-(5-fluorobenzofuran-2-yl)sulfonyl-pyrrolidine-2-carboxamide] | 110 |
| O=C(NCc1ccnc(-c2ccc(C(F)(F)F)cc2)c1)[C@@H]1CCCN1S(=O)(=O)c1cc2ccccc2o1 [Example 115, (2S)-1-(benzofuran-2-ylsulfonyl)-N-[[2-[4-(trifluoromethyl)phenyl]-4-pyridyl]methyl]pyrrolidine-2-carboxamide] | 2.4 |
| C[C@H](NS(=O)(=O)c1cc2cc(F)ccc2o1)C(=O)NCc1cc(-c2ccc(C(F)(F)F)nn2)ccn1 [Example 244, (2S)-2-[(5-fluorobenzofuran-2-yl)sulfonylamino]-N-[[4-[6-(trifluoromethyl)pyridazin-3-yl]-2-pyridyl]methyl]propanamide] | 44 |
| O=C(NCc1cccc(OCc2ccccc2)c1)[C@@H]1CCCN1S(=O)(=O)c1cc2cc(F)ccc2o1 [Example 43, (2S)-N-[(3-benzyloxyphenyl)methyl]-1-(5-fluorobenzofuran-2-yl)sulfonyl-pyrrolidine-2-carboxamide] | 1.6 |
